Active and inactive are the calls of the source.
Experiments:
[1] = biological target: Cytochrome P450 3A4 (Homo sapiens, UniProt P08684);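 also: CYP3A4 tested as one member of a cytochrome P450 panel screen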
[2] = biological target: Cytochrome P450 2C19 (Homo sapiens, UniProt P33261); test: Cytochrome panel assay with activity outcomes. Panel member name: p450-cyp2c19 Compounds with AC50 equal or less than 10 uM are considered active; assay type: functional
[3] = Luminescence Cell-Based Dose Retest to Confirm Inhibitors of Cancer Stem Cells. [Related pubchem assays (depositor defined):AID2717, AID2721]; assay type: functional; settings: Homo sapiens
[4] = biological target: T1, Protein RecA (Mycobacterium tuberculosis, UniProt P9WHJ3); test: Fluorescence Cell-Free Homogeneous Dose Retest to Identify Inhibitors of RecA-Intein Splicing Activity. [Related pubchem assays (depositor defined):AID2097, AID2223, AID489010, AID492950]; assay type: functional
T1 sequence (P9WHJ3 whole entry): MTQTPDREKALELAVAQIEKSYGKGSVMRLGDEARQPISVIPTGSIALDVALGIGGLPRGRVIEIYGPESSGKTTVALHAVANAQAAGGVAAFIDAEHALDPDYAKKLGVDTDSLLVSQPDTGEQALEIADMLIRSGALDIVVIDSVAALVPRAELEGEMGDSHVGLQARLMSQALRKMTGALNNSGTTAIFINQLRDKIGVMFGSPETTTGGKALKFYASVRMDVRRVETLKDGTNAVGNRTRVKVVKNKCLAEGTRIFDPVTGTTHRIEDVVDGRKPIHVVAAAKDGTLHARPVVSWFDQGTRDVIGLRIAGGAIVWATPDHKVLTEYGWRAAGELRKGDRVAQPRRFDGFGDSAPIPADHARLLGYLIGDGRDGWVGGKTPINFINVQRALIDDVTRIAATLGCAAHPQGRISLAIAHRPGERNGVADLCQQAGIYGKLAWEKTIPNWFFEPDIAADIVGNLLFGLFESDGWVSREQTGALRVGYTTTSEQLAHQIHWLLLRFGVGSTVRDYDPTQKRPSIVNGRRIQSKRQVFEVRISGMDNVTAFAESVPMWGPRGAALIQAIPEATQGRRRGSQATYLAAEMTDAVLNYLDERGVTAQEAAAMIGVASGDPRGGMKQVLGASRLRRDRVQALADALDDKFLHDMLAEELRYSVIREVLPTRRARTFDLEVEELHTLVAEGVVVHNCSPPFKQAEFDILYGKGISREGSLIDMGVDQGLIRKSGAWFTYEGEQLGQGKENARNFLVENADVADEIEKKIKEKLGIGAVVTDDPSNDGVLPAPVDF

[5] = biological target: T2, Replicative DNA helicase DnaB (Mycobacterium tuberculosis, UniProt P9WMR3); test: DnaB intein splicing inhibitors, dose response, biochemical, cell-free fluorescence (AID 449749); assay type: functional
T2 sequence (P9WMR3 whole entry): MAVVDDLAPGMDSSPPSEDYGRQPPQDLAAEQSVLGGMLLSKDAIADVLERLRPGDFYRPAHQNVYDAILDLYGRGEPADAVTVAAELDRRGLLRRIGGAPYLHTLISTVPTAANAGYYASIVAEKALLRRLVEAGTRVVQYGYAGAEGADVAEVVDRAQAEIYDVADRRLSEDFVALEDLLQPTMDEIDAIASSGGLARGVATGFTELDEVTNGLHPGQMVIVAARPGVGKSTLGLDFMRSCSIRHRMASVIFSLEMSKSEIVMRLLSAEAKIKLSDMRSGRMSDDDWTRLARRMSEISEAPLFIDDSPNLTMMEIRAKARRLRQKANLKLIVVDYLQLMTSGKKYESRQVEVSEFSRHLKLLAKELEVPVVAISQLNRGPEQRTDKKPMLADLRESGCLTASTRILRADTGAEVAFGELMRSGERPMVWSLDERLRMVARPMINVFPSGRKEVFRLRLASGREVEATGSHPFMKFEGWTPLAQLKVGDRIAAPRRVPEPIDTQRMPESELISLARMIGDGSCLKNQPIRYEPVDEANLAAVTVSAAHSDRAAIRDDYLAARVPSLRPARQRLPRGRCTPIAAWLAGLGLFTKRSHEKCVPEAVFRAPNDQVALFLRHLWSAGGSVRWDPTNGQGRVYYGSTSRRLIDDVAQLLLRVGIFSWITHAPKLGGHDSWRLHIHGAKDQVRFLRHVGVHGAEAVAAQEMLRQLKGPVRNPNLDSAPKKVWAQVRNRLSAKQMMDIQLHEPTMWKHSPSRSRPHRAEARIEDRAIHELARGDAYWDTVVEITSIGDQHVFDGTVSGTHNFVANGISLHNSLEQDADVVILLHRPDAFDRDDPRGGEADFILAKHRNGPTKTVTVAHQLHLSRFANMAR

[6] = biological target: T3, Corticotropin-releasing factor receptor 2/Corticotropin-releasing factor-binding protein (Homo sapiens, UniProt P24387+Q13324); test: Dose Response confirmation of uHTS hits for small molecule antagonists of the CRF-binding protein and CRF-R2 receptor complex.; assay type: functional; settings: read-out: IC50_Mean
T3 sequence (Q13324 whole entry): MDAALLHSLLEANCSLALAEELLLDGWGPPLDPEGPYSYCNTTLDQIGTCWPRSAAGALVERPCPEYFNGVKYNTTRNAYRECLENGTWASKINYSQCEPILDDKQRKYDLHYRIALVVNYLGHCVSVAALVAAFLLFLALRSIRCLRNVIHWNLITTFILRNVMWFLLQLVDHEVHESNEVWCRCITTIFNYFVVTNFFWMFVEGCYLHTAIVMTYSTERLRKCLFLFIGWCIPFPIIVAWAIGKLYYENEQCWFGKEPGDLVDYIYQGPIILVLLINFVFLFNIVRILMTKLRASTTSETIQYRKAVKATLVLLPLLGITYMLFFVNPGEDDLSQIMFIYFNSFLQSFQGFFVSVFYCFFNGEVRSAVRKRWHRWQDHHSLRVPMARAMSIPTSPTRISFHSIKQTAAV
T3 sequence (P24387 whole entry): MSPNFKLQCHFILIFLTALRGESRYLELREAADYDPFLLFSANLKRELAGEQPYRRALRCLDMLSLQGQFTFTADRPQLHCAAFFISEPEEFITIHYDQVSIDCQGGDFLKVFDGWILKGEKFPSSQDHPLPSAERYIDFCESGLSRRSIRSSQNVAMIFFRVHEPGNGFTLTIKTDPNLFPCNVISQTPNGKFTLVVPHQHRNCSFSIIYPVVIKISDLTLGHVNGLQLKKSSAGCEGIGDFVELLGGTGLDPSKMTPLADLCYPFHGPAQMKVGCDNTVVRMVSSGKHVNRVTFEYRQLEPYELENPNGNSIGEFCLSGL

[7] = biological target: T3, Corticotropin-releasing factor receptor 2/Corticotropin-releasing factor-binding protein; test: activators of CRF receptor 2 with binding protein – uHTS hits, confirmation (AID 602473); assay type: functional; settings: read-out: EC50_Mean
[8] = biological target: Cytochrome P450 2C9 (Homo sapiens, UniProt P11712)
Chain of Cytochrome P450 2C9 (P11712 whole entry): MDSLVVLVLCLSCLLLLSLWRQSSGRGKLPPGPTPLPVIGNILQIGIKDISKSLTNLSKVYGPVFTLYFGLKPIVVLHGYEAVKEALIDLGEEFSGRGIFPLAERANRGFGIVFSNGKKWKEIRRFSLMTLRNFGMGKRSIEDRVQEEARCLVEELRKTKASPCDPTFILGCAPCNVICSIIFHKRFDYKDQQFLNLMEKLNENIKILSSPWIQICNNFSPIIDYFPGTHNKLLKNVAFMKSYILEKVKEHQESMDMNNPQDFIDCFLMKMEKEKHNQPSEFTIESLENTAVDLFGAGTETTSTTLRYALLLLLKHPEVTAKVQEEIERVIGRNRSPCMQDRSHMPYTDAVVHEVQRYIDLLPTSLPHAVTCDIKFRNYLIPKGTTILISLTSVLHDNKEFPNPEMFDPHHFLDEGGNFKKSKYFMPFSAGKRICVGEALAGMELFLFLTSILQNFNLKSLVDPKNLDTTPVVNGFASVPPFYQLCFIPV

Chain of Cytochrome P450 2C19 (P33261 whole entry): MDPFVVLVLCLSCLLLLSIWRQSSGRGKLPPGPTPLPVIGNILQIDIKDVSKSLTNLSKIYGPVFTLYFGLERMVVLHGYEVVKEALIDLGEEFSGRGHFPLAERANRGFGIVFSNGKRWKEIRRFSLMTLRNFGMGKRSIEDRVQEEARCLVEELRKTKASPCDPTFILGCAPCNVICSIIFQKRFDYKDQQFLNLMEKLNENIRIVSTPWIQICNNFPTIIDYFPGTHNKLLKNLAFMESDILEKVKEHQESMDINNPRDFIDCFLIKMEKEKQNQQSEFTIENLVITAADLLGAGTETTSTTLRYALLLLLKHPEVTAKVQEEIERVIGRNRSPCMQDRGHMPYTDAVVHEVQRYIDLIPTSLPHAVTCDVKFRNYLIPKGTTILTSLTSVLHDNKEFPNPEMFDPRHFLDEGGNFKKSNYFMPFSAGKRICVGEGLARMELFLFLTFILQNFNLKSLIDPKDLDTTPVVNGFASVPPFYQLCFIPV
Chain of Cytochrome P450 3A4 (P08684 whole entry): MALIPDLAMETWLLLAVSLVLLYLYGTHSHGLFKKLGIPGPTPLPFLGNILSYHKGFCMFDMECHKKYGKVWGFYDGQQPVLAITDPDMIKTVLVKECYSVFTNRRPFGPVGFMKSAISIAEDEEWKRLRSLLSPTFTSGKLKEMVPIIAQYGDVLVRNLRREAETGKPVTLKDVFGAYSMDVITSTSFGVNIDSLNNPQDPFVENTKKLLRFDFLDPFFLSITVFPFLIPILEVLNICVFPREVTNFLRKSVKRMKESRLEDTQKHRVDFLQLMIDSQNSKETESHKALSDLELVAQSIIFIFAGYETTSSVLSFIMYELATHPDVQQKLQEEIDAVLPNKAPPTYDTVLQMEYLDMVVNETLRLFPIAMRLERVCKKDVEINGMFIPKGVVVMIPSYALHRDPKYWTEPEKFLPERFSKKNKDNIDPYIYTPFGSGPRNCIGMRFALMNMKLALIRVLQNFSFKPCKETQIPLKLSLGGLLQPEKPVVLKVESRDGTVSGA

Cc1cc(C(F)F)n2nc(C(=O)Nc3sc4c(c3C#N)CCC(C)C4)nc2n1 (stereo not given)
AC50 [1]: 15.8 µM (inconclusive)
AC50 ([2]; read-out: AC50): 31.6 µM (inconclusive)

COc1ccc(OC)c(Nc2c3ccccc3nc3ccccc23)c1
AC50 [3]: 3.78 µM (active)

CC1=NN(c2ccccc2)C(=O)C1/C=C1\C(=O)NC(=O)N(c2ccc(C)c(C)c2)C1=O (stereo not given)
EC50 [4]: 3.37 µM (active)
AC50 [5]: 23.6 µM (active)

COc1ccc(CCNC2=C(Cl)C(=O)N(Cc3ccccc3)C2=O)cc1OC
IC50 [6]: > 47.1 µM (inactive)
EC50 [7]: > 53 µM (inactive)

CN1CCC[C@@H]1c1cccnc1.Cc1ccc(C(=O)O[C@@H](C(=O)O)[C@@H](OC(=O)c2ccc(C)cc2)C(=O)O)cc1
AC50 [2]: inconclusive

Cc1n[nH]c2c1C1(CCN(Cc3ccccc3)CC1)C(C#N)=C(N)O2
EC50 [4]: 1.07 µM (active)
AC50 [5]: > 380 µM (inactive)

O=C(/C=C/c1ccc2ccccc2n1)N1CCN(c2ccccc2)CC1
IC50 [6]: > 47.1 µM (inactive)
EC50 [7]: > 53 µM (inactive)

CCCOc1c(OC)cccc1C1CC(=O)Nc2cc3c(cc21)OCCO3 (stereo not given)
AC50 [3]: 1.85 µM (active)

COc1cc2[nH]c(=O)n(CCCCCC(=O)NC3CCCC3)c(=O)c2cc1OC
IC50 [6]: > 47.1 µM (inactive)
EC50 [7]: > 53 µM (inactive)

O=C(NN1C(=O)CSC1=S)c1cccnc1
IC50 [6]: > 47.1 µM (inactive)
EC50 [7]: > 53 µM (inactive)

CS(=O)(=O)c1ccc(C(=O)CN2C(=O)NC3(CCCc4ccccc43)C2=O)cc1 (stereo not given)
IC50 [6]: > 47.1 µM (inactive)
EC50 [7]: > 53 µM (inactive)

S=C(Nc1ccc(Oc2ccccc2)cc1)NC1CCCCCC1
AC50 [3]: 5.01 µM (active)

Cc1cccc(-c2nc(C[S+]([O-])CC(=O)N3CC(C)CC(C)C3)c(C)o2)c1 (stereo not given)
IC50 [6]: > 47.1 µM (inactive)
EC50 [7]: > 53 µM (inactive)

COc1ccccc1CNc1nc(-c2ccccc2CN(C)C)nc2ccccc12
AC50 ([2]; read-out: AC50): 25.1 µM (inconclusive)

CC(C)c1nc2ccccn2c1NC1CCCCC1
AC50 ([2]; read-out: AC50): 22.4 µM (inconclusive)
AC50 [8]: 39.8 µM (inconclusive)

CCOc1ccccc1NC(=O)CCC(=O)O
AC50 ([2]; read-out: AC50): 3.16 µM (inconclusive)

CCOC(=O)N1CCN(C(=O)CSc2nnc(-c3ccc(C(C)(C)C)cc3)o2)CC1
IC50 [6]: > 47.1 µM (inactive)
EC50 [7]: > 53 µM (inactive)

Cc1sc(NC(=O)/C=C/C(=O)O)c(C(N)=O)c1-c1ccc(C(C)(C)C)cc1
EC50 [4]: 5.82 µM (active)
AC50 [5]: > 380 µM (inactive)

N#C/C(=C\c1ccccc1)c1nc2ccc[nH]c-2n1
AC50 ([2]; read-out: AC50): 28.2 µM (inconclusive)

CC(C)(C)NC(=O)C(c1ccccn1)N(C(=O)C1CSC(=O)C1)c1cccc(F)c1 (stereo not given)
IC50 [6]: > 47.1 µM (inactive)
EC50 [7]: > 53 µM (inactive)

O=C1NC(=O)N(CCc2ccc(F)cc2)C(=O)/C1=C/NCCCN1CCOCC1
AC50 [2]: inconclusive

Cc1ccc(N2CC(C(=O)NC3CCC(C)CC3)CC2=O)cc1 (stereo not given)
IC50 [6]: > 47.1 µM (inactive)
EC50 [7]: > 53 µM (inactive)

Cc1ccc(NC(=O)c2cnc(SCC(=O)NCC3CCCO3)n(C)c2=O)cc1C (stereo not given)
EC50 [4]: 2.23 µM (active)
AC50 [5]: 7.83 µM (active)

COCCCN1Cc2ccccc2C1=N
AC50 ([2]; read-out: AC50): 39.8 µM (inconclusive)
AC50 [8]: 11.2 µM (inconclusive)

Cc1noc(C)c1COc1cccc(C(=O)Nc2ccc(OCc3ccccc3)cc2)c1
AC50 [3]: 10.8 µM (active)

Cc1ccc(SC[C@H](C)CN2CC[C@H](C(C)(C)C)CCC2=O)cc1
AC50 [3]: 1.56 µM (active)

CCNc1ncc2nc(CCc3ccccc3)c(=O)n(-c3ccc(OC)cc3)c2n1
AC50 ([2]; read-out: AC50): 39.8 µM (inconclusive)
AC50 [8]: 15.8 µM (inconclusive)

O=c1c(CCc2ccccc2)nc2cnc(Oc3ccccc3)nc2n1C[C@H]1CCCO1
AC50 [1]: 0.0794 µM (inconclusive)
AC50 ([2]; read-out: AC50): 39.8 µM (inconclusive)

CCCc1nnc(SCC(=O)N2CCCCC2C)n1CCCOC (stereo not given)
AC50 [1]: 15.8 µM (inconclusive)
AC50 ([2]; read-out: AC50): 39.8 µM (inconclusive)
AC50 [8]: 0.0251 µM (inconclusive)

O=C1C(Cc2ccccc2)Nc2ncnc(N3CCc4ccccc4C3)c2N1Cc1ccc(Cl)cc1 (stereo not given)
EC50 [4]: > 380 µM (inconclusive)
AC50 [5]: > 120 µM (inactive)

C[C@@H]1CC=C[C@H]2[C@H]1C(=O)N(Cc1ccccc1)[C@H]2c1ccc2ccccc2c1
AC50 [3]: 5.69 µM (active)

O=C1C(=Cc2cccs2)C(=O)c2ccccc21
IC50 [6]: > 47.1 µM (inactive)
EC50 [7]: > 53 µM (inactive)

O=C(CSc1nnnn1-c1ccccc1)NCCCN1CCCC1=O
IC50 [6]: > 47.1 µM (inactive)
EC50 [7]: > 53 µM (inactive)

CC(C)=CCC/C(C)=C/CO/N=C1/C[C@@H](O)[C@@H](O)[C@@H]2[C@@H]3C(=O)N(Cc4ccccc4)C(=O)[C@H]3CC[C@@H]12
AC50 [2]: inconclusive

OC(C#CCN1CCCCCC1)(c1ccccc1)c1cccnc1 (stereo not given)
IC50 [6]: > 47.1 µM (inactive)
EC50 [7]: > 53 µM (inactive)

O=C(O)C1C2CCC(C2)C1C(=O)NCc1ccco1 (stereo not given)
AC50 ([2]; read-out: AC50): 7.94 µM (inconclusive)

— ChEMBL document CHEMBL1201862, “PubChem BioAssay data set” (2004)
